Assay results published in ChEMBL document CHEMBL5724806, “Unraveling interindividual differences and functional consequences of gut microbial metabolism of immunosuppressants” (2024).

What was measured:
Type in all cases: ADME
[1] = (§1) The drug is tested on Eubacterium hallii strain: DSM3353 for biotransformation under anaerobic condition. The drug concentrations were measured over 6 timepoints collected between 0 and 12 hours of incubation by liquid-chromatography-coupled mass spectrometry (LC–MS); parameters: dose 5 uM, timepoint 0, 1.5, 3, 6, 9, 12 hours; settings: anaerobutyricum hallii, 5 µM
[2] = as §1, with “the gut metagenome community of A-07 with ENA study accession number: PRJEB31790” for “Eubacterium hallii strain: DSM3353”, “microaerobic” for “anaerobic”, “7” for “6”; parameters: dose 5 uM, timepoint 0, 0.75, 1.5, 3, 6, 9, 12 hours; settings: 5 µM
[3] = as §1, with “the gut metagenome community of A-07 with ENA study accession number: PRJEB31790” for “Eubacterium hallii strain: DSM3353”, “7” for “6”; parameters: dose 5 uM, timepoint 0, 0.75, 1.5, 3, 6, 9, 12 hours; settings: 5 µM
[4] = as §1, with “the gut metagenome community of A-04 with ENA study accession number: PRJEB31790” for “Eubacterium hallii strain: DSM3353”, “7” for “6”; parameters: dose 5 uM, timepoint 0, 0.75, 1.5, 3, 6, 9, 12 hours; settings: 5 µM
[5] = as §1, with “the gut metagenome community of A-05 with ENA study accession number: PRJEB31790” for “Eubacterium hallii strain: DSM3353”, “microaerobic” for “anaerobic”, “7” for “6”; parameters: dose 5 uM, timepoint 0, 0.75, 1.5, 3, 6, 9, 12 hours; settings: 5 µM
[6] = as §1, with “the gut metagenome community of P-04 with ENA study accession number: PRJEB31790” for “Eubacterium hallii strain: DSM3353”, “microaerobic” for “anaerobic”, “7” for “6”; parameters: dose 5 uM, timepoint 0, 0.75, 1.5, 3, 6, 9, 12 hours; settings: 5 µM
[7] = The drug is tested on Coprococcus comes strain: ATCC27758 for biotransformation under anaerobic condition. The drug concentrations were measured over 6 timepoints collected between 0 and 12 hours of incubation by liquid-chromatography-coupled mass spectrometry (LC–MS); parameters: dose 5 uM, timepoint 0, 1.5, 3, 6, 9, 12 hours; settings: 5 µM
[8] = (§2) The drug is tested on Streptococcus salivarius strain: DSM20560 for biotransformation under microaerobic condition. The drug concentrations were measured over 6 timepoints collected between 0 and 12 hours of incubation by liquid-chromatography-coupled mass spectrometry (LC–MS); parameters: dose 5 uM, timepoint 0, 1.5, 3, 6, 9, 12 hours; settings: 5 µM
[9] = as §2, with “the gut metagenome community of A-06 with ENA study accession number: PRJEB31790” for “Streptococcus salivarius strain: DSM20560”, “7” for “6”; parameters: dose 5 uM, timepoint 0, 0.75, 1.5, 3, 6, 9, 12 hours; settings: 5 µM
[10] = as §2, with “the gut metagenome community of A-01 with ENA study accession number: PRJEB31790” for “Streptococcus salivarius strain: DSM20560”, “7” for “6”; parameters: dose 5 uM, timepoint 0, 0.75, 1.5, 3, 6, 9, 12 hours; settings: 5 µM
[11] = The drug is tested on Bacteroides xylanisolvens strain: HM 722 for biotransformation under anaerobic condition. The drug concentrations were measured over 6 timepoints collected between 0 and 12 hours of incubation by liquid-chromatography-coupled mass spectrometry (LC–MS); parameters: dose 5 uM, timepoint 0, 1.5, 3, 6, 9, 12 hours; settings: 5 µM
[12] = The drug is tested on Akkermansia muciniphila strain: DSM22959 for biotransformation under anaerobic condition. The drug concentrations were measured over 6 timepoints collected between 0 and 12 hours of incubation by liquid-chromatography-coupled mass spectrometry (LC–MS); parameters: dose 5 uM, timepoint 0, 1.5, 3, 6, 9, 12 hours; settings: 5 µM
[13] = The drug is tested on Streptococcus salivarius strain: DSM20560 for biotransformation under anaerobic condition. The drug concentrations were measured over 6 timepoints collected between 0 and 12 hours of incubation by liquid-chromatography-coupled mass spectrometry (LC–MS); parameters: dose 5 uM, timepoint 0, 1.5, 3, 6, 9, 12 hours; settings: 5 µM
[14] = The drug is tested on Clostridium ramosum strain: DSM1402 for biotransformation under anaerobic condition. The drug concentrations were measured over 6 timepoints collected between 0 and 12 hours of incubation by liquid-chromatography-coupled mass spectrometry (LC–MS); parameters: dose 5 uM, timepoint 0, 1.5, 3, 6, 9, 12 hours; settings: thomasclavelia ramosa, 5 µM
[15] = The drug is tested on Bacteroides ovatus strain: ATCC 8483 for biotransformation under anaerobic condition. The drug concentrations were measured over 6 timepoints collected between 0 and 12 hours of incubation by liquid-chromatography-coupled mass spectrometry (LC–MS); parameters: dose 5 uM, timepoint 0, 1.5, 3, 6, 9, 12 hours; settings: 5 µM
[16] = The drug is tested on Gemella haemolysans strain: DSM107751 for biotransformation under anaerobic condition. The drug concentrations were measured over 6 timepoints collected between 0 and 12 hours of incubation by liquid-chromatography-coupled mass spectrometry (LC–MS); parameters: dose 5 uM, timepoint 0, 1.5, 3, 6, 9, 12 hours; settings: 5 µM
[17] = as §2, with “the gut metagenome community of P-01 with ENA study accession number: PRJEB31790” for “Streptococcus salivarius strain: DSM20560”, “7” for “6”; parameters: dose 5 uM, timepoint 0, 0.75, 1.5, 3, 6, 9, 12 hours; settings: 5 µM
[18] = as §2, with “the gut metagenome community of P-03 with ENA study accession number: PRJEB31790” for “Streptococcus salivarius strain: DSM20560”, “7” for “6”; parameters: dose 5 uM, timepoint 0, 0.75, 1.5, 3, 6, 9, 12 hours; settings: 5 µM
[19] = The drug is tested on Odoribacter splanchnicus strain: DSM20712 for biotransformation under anaerobic condition. The drug concentrations were measured over 6 timepoints collected between 0 and 12 hours of incubation by liquid-chromatography-coupled mass spectrometry (LC–MS); parameters: dose 5 uM, timepoint 0, 1.5, 3, 6, 9, 12 hours; settings: 5 µM
[20] = as §1, with “the gut metagenome community of T-01 with ENA study accession number: PRJEB31790” for “Eubacterium hallii strain: DSM3353”, “7” for “6”; parameters: dose 5 uM, timepoint 0, 0.75, 1.5, 3, 6, 9, 12 hours; settings: 5 µM
[21] = The drug is tested on Lactobacillus reuteri strain: DSM20016 for biotransformation under anaerobic condition. The drug concentrations were measured over 6 timepoints collected between 0 and 12 hours of incubation by liquid-chromatography-coupled mass spectrometry (LC–MS); parameters: dose 5 uM, timepoint 0, 1.5, 3, 6, 9, 12 hours; settings: limosilactobacillus reuteri, 5 µM
[22] = The drug is tested on Lactobacillus fermentum strain: DSM20052 for biotransformation under microaerobic condition. The drug concentrations were measured over 6 timepoints collected between 0 and 12 hours of incubation by liquid-chromatography-coupled mass spectrometry (LC–MS); parameters: dose 5 uM, timepoint 0, 1.5, 3, 6, 9, 12 hours; settings: limosilactobacillus fermentum, 5 µM
[23] = The drug is tested on Ruminococcus gnavus strain: ATCC29149 for biotransformation under anaerobic condition. The drug concentrations were measured over 6 timepoints collected between 0 and 12 hours of incubation by liquid-chromatography-coupled mass spectrometry (LC–MS); parameters: dose 5 uM, timepoint 0, 1.5, 3, 6, 9, 12 hours; settings: mediterraneibacter gnavus, 5 µM
[24] = The drug is tested on Escherichia coli strain: DSM27469 for biotransformation under anaerobic condition. The drug concentrations were measured over 6 timepoints collected between 0 and 12 hours of incubation by liquid-chromatography-coupled mass spectrometry (LC–MS); parameters: dose 5 uM, timepoint 0, 1.5, 3, 6, 9, 12 hours; settings: 5 µM
[25] = The drug is tested on Gemella morbillorum strain: DSM20572 for biotransformation under anaerobic condition. The drug concentrations were measured over 6 timepoints collected between 0 and 12 hours of incubation by liquid-chromatography-coupled mass spectrometry (LC–MS); parameters: dose 5 uM, timepoint 0, 1.5, 3, 6, 9, 12 hours; settings: 5 µM
[26] = The drug is tested on Streptococcus mitis strain: DSM12643 for biotransformation under microaerobic condition. The drug concentrations were measured over 6 timepoints collected between 0 and 12 hours of incubation by liquid-chromatography-coupled mass spectrometry (LC–MS); parameters: dose 5 uM, timepoint 0, 1.5, 3, 6, 9, 12 hours; settings: 5 µM
[27] = The drug is tested on Alloscardovia omnicolens strain: DSM21503 for biotransformation under anaerobic condition. The drug concentrations were measured over 6 timepoints collected between 0 and 12 hours of incubation by liquid-chromatography-coupled mass spectrometry (LC–MS); parameters: dose 5 uM, timepoint 0, 1.5, 3, 6, 9, 12 hours; settings: 5 µM
[28] = The drug is tested on Alloscardovia omnicolens strain: DSM21503 for biotransformation under microaerobic condition. The drug concentrations were measured over 6 timepoints collected between 0 and 12 hours of incubation by liquid-chromatography-coupled mass spectrometry (LC–MS); parameters: dose 5 uM, timepoint 0, 1.5, 3, 6, 9, 12 hours; settings: 5 µM
[29] = The drug is tested on Eubacterium eligens strain: DSM3376 for biotransformation under anaerobic condition. The drug concentrations were measured over 6 timepoints collected between 0 and 12 hours of incubation by liquid-chromatography-coupled mass spectrometry (LC–MS); parameters: dose 5 uM, timepoint 0, 1.5, 3, 6, 9, 12 hours; settings: lachnospira eligens, 5 µM

Bacterial Biotransformation [1] | Bacterial Biotransformation [2] | Bacterial Biotransformation [3] | Bacterial Biotransformation [4] | Bacterial Biotransformation [5] | Bacterial Biotransformation [6] | Bacterial Biotransformation [7] | Bacterial Biotransformation [8] | Bacterial Biotransformation [9] | Bacterial Biotransformation [10] | Bacterial Biotransformation [11] | Bacterial Biotransformation [12] | Bacterial Biotransformation [13] | Bacterial Biotransformation [14] | Bacterial Biotransformation [15] | Bacterial Biotransformation [17] | Bacterial Biotransformation [18] | Bacterial Biotransformation [19] | Bacterial Biotransformation [20] | SMILES | Bacterial Biotransformation [16] | further results
Compound NOT metabolized | Compound NOT metabolized | Compound NOT metabolized | Compound NOT metabolized | Compound NOT metabolized | Compound NOT metabolized | Compound NOT metabolized | Compound NOT metabolized | Compound NOT metabolized | Compound NOT metabolized | Compound NOT metabolized | Compound NOT metabolized | Compound NOT metabolized | Compound NOT metabolized | Compound NOT metabolized | Compound NOT metabolized | Compound NOT metabolized | Compound NOT metabolized | Compound NOT metabolized | NS(=O)(=O)c1cc(C(=O)O)c(NCc2ccco2)cc1Cl [FUROSEMIDE] | Compound NOT metabolized | Bacterial Biotransformation [21]: Compound NOT metabolized; Bacterial Biotransformation [22]: Compound NOT metabolized; Bacterial Biotransformation [23]: Compound NOT metabolized; Bacterial Biotransformation [24]: Compound NOT metabolized; Bacterial Biotransformation [25]: Compound NOT metabolized; Bacterial Biotransformation [26]: Compound NOT metabolized; Bacterial Biotransformation [27]: Compound NOT metabolized; Bacterial Biotransformation [28]: Compound NOT metabolized; Bacterial Biotransformation [29]: Compound NOT metabolized
Compound NOT metabolized | Compound NOT metabolized | Compound NOT metabolized | Compound NOT metabolized | Compound NOT metabolized | Compound NOT metabolized | Compound NOT metabolized | Compound NOT metabolized | Compound NOT metabolized | Compound NOT metabolized | Compound NOT metabolized | Compound NOT metabolized | Compound NOT metabolized | Compound NOT metabolized | Compound NOT metabolized | Compound NOT metabolized | Compound NOT metabolized | Compound NOT metabolized | Compound NOT metabolized | CCOc1nc2cccc(C(=O)O)c2n1Cc1ccc(-c2ccccc2-c2nnn[nH]2)cc1 | Compound NOT metabolized | Bacterial Biotransformation [21]: Compound NOT metabolized; Bacterial Biotransformation [22]: Compound NOT metabolized; Bacterial Biotransformation [23]: Compound NOT metabolized; Bacterial Biotransformation [24]: Compound NOT metabolized; Bacterial Biotransformation [25]: Compound NOT metabolized; Bacterial Biotransformation [26]: Compound NOT metabolized; Bacterial Biotransformation [27]: Compound NOT metabolized; Bacterial Biotransformation [28]: Compound NOT metabolized; Bacterial Biotransformation [29]: Compound NOT metabolized
Compound NOT metabolized | Compound NOT metabolized | Compound NOT metabolized | Compound NOT metabolized | Compound NOT metabolized | Compound NOT metabolized | Compound NOT metabolized | Compound NOT metabolized | Compound NOT metabolized | Compound NOT metabolized | Compound NOT metabolized | Compound NOT metabolized | Compound NOT metabolized | Compound NOT metabolized | Compound NOT metabolized | Compound NOT metabolized | Compound NOT metabolized | Compound NOT metabolized | Compound metabolized | C[C@@H](NCCCc1cccc(C(F)(F)F)c1)c1cccc2ccccc12 | Compound NOT metabolized | Bacterial Biotransformation [21]: Compound NOT metabolized; Bacterial Biotransformation [22]: Compound NOT metabolized; Bacterial Biotransformation [23]: Compound NOT metabolized; Bacterial Biotransformation [24]: Compound NOT metabolized; Bacterial Biotransformation [25]: Compound NOT metabolized; Bacterial Biotransformation [26]: Compound NOT metabolized; Bacterial Biotransformation [27]: Compound NOT metabolized; Bacterial Biotransformation [28]: Compound NOT metabolized; Bacterial Biotransformation [29]: Compound NOT metabolized
